Several values for one entry are separate records, joined by “and”; a condition that tells them apart may be missing. Equal values may be shown once. Where a name gives a salt, the structure may show the parent alone. Read-outs that look alike come from different tables or passages of the source.
How the values were obtained:
[1] = test system: EVSA-T (human breast carcinoma); test: Anti-proliferative activity, Alamar Blue assay, EVSA-T; format: cell-based; details: 72 hours compound, read-out: EVSA-T prolif
Procedure: (§1) The method is based on the ability of viable cells to reduce resazurin to its fluorescent product resorufin. For each proliferation assay cells are plated onto 96 well plates and allowed to recover for 16 hours prior to the addition of inhibitor compounds (in 0.1% DMSO v/v) for a further 72 hours.
(§2) The anti-proliferative activities of compounds of the invention can be determined by measuring the ability of the compounds to inhibit growth in 3 cancer cell lines: • EVSA-T (human breast carcinoma) DSMZ cat. no.

[2] = molecular target: T1, XIAP-Caspase-9 in HEK293-XIAP-Caspase-9 cells (Homo sapiens, UniProt P98170); test: HEK293-XIAP-Caspase-9 immunoprecipitation (IP) MSD assay; format: cell-based; details: compound 2 h at 37° C.; read-out: HEK293-X-C9 IP
T1 construct: FLAG; expressed in transfected cells
Procedure: Stable HEK293-XIAP-Caspase-9 cells were plated out into 96-well plates [200 μl/well at 1×10^6 cells/mL in cultured complete medium (DMEM+10% FBS+0.5 mg/mL Geneticin (Invitrogen)] and left overnight at 37° C. to recover. Compounds were added to duplicate wells in 0.1% DMSO for 2 h at 37° C. Cells were lysed in 50 μl 1×MSD lysis buffer (1% Triton X-100 in 20 mM Tris·Cl (pH 7.6), 150 mM NaCl including protease inhibitors) for 20 min rocking at room temperature. Streptavidin high bind MSD plate (L15SB-2) were coated with biotinylated anti-FLAG M2 antibody (Sigma F9291) at 25 μl/well with a 5 μg/mL dilution of antibody in PBS for 1 h, shaking; followed by blocking for 1 h with 150 μl 3% BSA/TBST. Cell lysate (25 μl) was added to the 96-well anti-FLAG coated MSD plate and placed on shaker for 4 h at room temperature. […] Plates were washed 4 times with 150 μl TBST, and 150 μl/well 1×MSD read buffer (R92TC-2) added before reading each plate.
EC50 values were determined from dose-response plots using nonlinear least-squares analysis.

[3] = test system: MDA-MB-231 (human breast carcinoma); test: Anti-proliferative activity, Alamar Blue assay, MDA-MB-231; format: cell-based; details: proliferation, 72 hours compound
Procedure: as §1, §2

[4] = molecular target: T2, hERG ion channel (Homo sapiens, UniProt Q12809); test: Population Patch Clamp (PPC) hERG assay in CHO K1 cells; format: cell-based
T2 construct: expressed in transfected cells; host or cells: CHO K1
Procedure: Inhibition of the hERG channel was measured by automated patch clamp assay in CHO K1 cells, stably transfected with the hERG ion channel. PPC measurements were performed using an IonWorks Quattro instrument (Molecular Devices Corporation, Union City, CA) using a 384 well PatchPlate (Molecular Devices Corporation) with 64 apertures per well. Each concentration of test compound was tested in duplicate wells. Amphotericin B was used to obtain electrical access to the cell interior at a final concentration of 200 μg/mL. Human ether-à-gogo related gene (hERG) currents were measured with a prepulse to +40 mV (2 s) from the holding potential of −80 mV, followed by a step to −50 mV (2 s) to elicit the deactivating tail currents, before returning to the holding potential for 1s. Compounds were incubated for 600s between the pre- and post-compound reads. The external recording solution used was 130 mM Na Gluconate, 20 mM NaCl, 4 mM KCl, 1 mM MgCl2, 1.8 mM CaCl2, 10 mM Hepes, 5 mM Glucose, pH to 7.3 with NaOH. All data were filtered for seal quality, seal drop, and current amplitude. The maximum current amplitude of the 3rd pulse tail current was calculated before (Pre) and after (Post) compound addition and the amount of block assessed by dividing the Post-compound current amplitude by the Pre-compound current amplitude.

[5] = test system: A375; test: Combination protocol for apoptosis, A375; format: cell-based, human; details: for % Apoptosis Example 2 alone* / % Apoptosis Combination: 24 h
Procedure: (§3) Melanoma cell lines were plated out in duplicate wells of 24-well plates at 0.5×10^6 cells/ml the day before treatment to allow them to adhere. After incubation of the cells with compound(s) with or without 1 ng/ml TNF-α (R&D Systems) for 24 h in a CO2 incubator at 37° C., cells were harvested by trypsinisation. The cell pellet from the 24-well plate was resuspended in 100 μl FACS buffer (PBS+1% fetal bovine serum). NucView488 reagent (from Biotium) was added to a final concentration of 2 μM. The plate was incubated in the dark for 30 minutes before measuring fluorescent stained cells in a Guava easyCyte HT cytometer (Millipore). Cleaved caspase-3 staining was recorded in the FL1 channel, with unstained and DMSO control wells being used to set the gated stained and unstained cell populations.
No increase in apoptosis was seen over this time scale with the combination agent shown in the first column of the table alone (with or without TNF-α)—data not shown.

[6] = test system: SK-MEL-5; test: Apoptosis induction (cleaved caspase-3 cytometry), SK-MEL-5; format: cell-based, human; details: 1 μM Example 2 plus 1 ng/ml TNF-α, 24 hour
Procedure: as §3

[7] = test system: SK-MEL-28; test: Combination protocol for apoptosis, SK-MEL-28; format: cell-based, human
Procedure: as §3, with “After” for “Melanoma cell lines were plated out in duplicate wells of 24-well plates at 0.5×10^6 cells/ml the day before treatment to allow them to adhere. After”

[8] = test system: RPMI-7951; test: Apoptosis induction (cleaved caspase-3 cytometry), RPMI-7951; format: cell-based, human; details: 1 μM Example 2 plus 1 ng/ml TNF-α, 24 hour
Procedure: as §3

[9] = test system: MALME-3M; test: Apoptosis induction (cleaved caspase-3 cytometry), MALME-3M; format: cell-based, human; details: 1 μM Example 2 plus 1 ng/ml TNF-α, 24 hour
Procedure: as §3

[10] = test system: WM-115; test: Apoptosis induction (cleaved caspase-3 cytometry), WM-115; format: cell-based, human; details: 1 μM Example 2 plus 1 ng/ml TNF-α, 24 hour, dihydrochloride
Procedure: as §3

[11] = test system: WM-266-4; test: Apoptosis induction (cleaved caspase-3 cytometry), WM-266-4; format: cell-based, human; details: 1 μM Example 2 plus 1 ng/ml TNF-α, 24 hour, dihydrochloride
Procedure: as §3

[12] = test system: A375; test: Apoptosis induction (cleaved caspase-3 cytometry), A375; format: cell-based, human; details: 1 μM Example 2 plus 1 ng/ml TNF-α, 24 hour
Procedure: as §3

[13] = test system: SK-MEL-2; test: Apoptosis induction (cleaved caspase-3 cytometry), SK-MEL-2; format: cell-based, human; details: 1 μM Example 2 plus 1 ng/ml TNF-α, 24 hour
Procedure: as §3

[14] = test system: SK-MEL-28; test: Apoptosis induction (cleaved caspase-3 cytometry), SK-MEL-28; format: cell-based, human; details: 1 μM Example 2 plus 1 ng/ml TNF-α, 24 hour
Procedure: as §3

T1 sequence (P98170 whole entry): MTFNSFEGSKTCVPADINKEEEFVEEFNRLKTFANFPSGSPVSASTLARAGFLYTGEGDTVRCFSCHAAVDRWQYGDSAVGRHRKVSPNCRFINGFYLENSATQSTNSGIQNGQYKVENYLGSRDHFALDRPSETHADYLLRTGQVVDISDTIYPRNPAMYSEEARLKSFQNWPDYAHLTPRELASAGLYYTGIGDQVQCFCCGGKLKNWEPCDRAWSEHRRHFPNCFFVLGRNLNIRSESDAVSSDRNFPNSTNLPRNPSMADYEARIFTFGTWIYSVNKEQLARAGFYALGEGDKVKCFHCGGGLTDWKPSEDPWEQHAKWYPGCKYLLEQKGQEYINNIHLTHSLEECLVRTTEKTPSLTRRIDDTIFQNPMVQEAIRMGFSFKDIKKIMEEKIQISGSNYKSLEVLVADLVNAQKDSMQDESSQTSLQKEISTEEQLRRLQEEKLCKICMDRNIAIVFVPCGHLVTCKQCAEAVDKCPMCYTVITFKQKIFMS
T2 sequence (Q12809 whole entry): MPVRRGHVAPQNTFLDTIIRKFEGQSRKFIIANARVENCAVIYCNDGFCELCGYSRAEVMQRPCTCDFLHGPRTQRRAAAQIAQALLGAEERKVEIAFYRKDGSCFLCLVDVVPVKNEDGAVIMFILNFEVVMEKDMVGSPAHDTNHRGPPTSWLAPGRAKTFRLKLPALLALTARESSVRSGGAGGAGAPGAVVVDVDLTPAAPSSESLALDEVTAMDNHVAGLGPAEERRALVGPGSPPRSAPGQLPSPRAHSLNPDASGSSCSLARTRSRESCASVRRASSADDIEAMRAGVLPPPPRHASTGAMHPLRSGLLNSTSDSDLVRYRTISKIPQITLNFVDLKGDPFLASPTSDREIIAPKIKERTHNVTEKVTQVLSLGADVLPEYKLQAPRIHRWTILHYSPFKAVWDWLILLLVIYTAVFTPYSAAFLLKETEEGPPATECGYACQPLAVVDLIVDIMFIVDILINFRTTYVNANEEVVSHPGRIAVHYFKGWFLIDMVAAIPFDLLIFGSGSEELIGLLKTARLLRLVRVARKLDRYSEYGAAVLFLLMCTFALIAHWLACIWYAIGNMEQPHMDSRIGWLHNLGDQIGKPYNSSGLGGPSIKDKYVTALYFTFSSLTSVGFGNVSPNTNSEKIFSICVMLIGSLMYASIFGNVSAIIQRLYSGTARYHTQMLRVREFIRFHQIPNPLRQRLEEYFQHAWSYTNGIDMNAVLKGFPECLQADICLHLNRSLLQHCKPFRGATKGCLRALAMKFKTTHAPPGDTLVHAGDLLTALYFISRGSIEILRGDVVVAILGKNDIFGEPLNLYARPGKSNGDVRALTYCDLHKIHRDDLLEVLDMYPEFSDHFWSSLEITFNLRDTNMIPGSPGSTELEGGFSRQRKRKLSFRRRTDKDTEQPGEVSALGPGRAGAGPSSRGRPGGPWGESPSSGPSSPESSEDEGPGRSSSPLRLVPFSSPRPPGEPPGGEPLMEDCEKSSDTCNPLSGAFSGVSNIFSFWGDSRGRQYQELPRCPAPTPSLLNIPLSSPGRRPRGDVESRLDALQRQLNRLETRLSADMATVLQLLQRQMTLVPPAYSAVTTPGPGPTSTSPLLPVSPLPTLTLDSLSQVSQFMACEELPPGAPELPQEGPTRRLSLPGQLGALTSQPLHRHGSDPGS

**Q.** How did the EC50 [1] turn out when `COC(CO)c1nc2c(cc1Cc1ccc(F)cc1)N(C(=O)CN1C[C@@H](C)NC[C@@H]1CN1[C@H](C)COC[C@H]1C)CC2(C)C` (single isomer, unassigned) [Example 36, 2-[(2R,5R)-2-{[(3R,5R)-3,5-Dimethylmorpholin-4-yl]methyl}-5-methylpiperazin-1-yl]-1-{6-[(4-fluorophenyl)methyl]-5-((R or S)-2-hydroxy-1-methoxyethyl)-3,3-dimethyl-1H,2H,3H-pyrrolo[3,2-b]pyridin-1-yl}ethan-1-one] was run?
**A.** 0.48 nM

**Q.** What about the EC50 ([1]; Homo sapiens, EVSA-T, 72 h) of the same compound?
**A.** 0.38 nM

**Q.** What about the EC50 [2] of the same compound?
**A.** 2.6 nM and 4.2 nM

**Q.** And the EC50 ([3]; Homo sapiens, MDA-MB-231, 72 h)?
**A.** 2.5 nM

**Q.** And the EC50 [3]?
**A.** 2.7 nM

**Q.** What about the IC50 ([4]; CHO K1 cells stably transfected with hERG) of the same compound?
**A.** 420 µM

**Q.** With `C[C@@H]1CN(CC(=O)N2CC(C)(C)c3nc(CO)c(Cc4ccc(F)cc4)cc32)[C@@H](CN2CCOC[C@H]2C)CN1` [Example 2, 1-{6-[(4-Fluorophenyl)methyl]-5-(hydroxymethyl)-3,3-dimethyl-1H,2H,3H-pyrrolo[3,2-b]pyridin-1-yl}-2-[(2R,5R)-5-methyl-2-{[(3R)-3-methylmorpholin-4-yl]methyl}piperazin-1-yl] ethan-1-one dihydrochloride] as the compound, how does the “% Apoptosis Example 2 alone*” value ([5]; Example 2 0.1 μM + 1 ng/ml TNF-α) read?
**A.** 14.4 (0.1 μM) %

**Q.** What about the “% Apoptosis Example 2 alone*” value ([5]; Example 2 1 μM + 1 ng/ml TNF-α) of the same compound?
**A.** 31.2 (1 μM) %

**Q.** And the “% Cleaved Caspase-3” value [6]?
**A.** 52.8%

**Q.** What about the “% Apoptosis Example 2 alone*” value ([7]; Example 2 0.1 μM + 1 ng/ml TNF-α, 24 h) of the same compound?
**A.** 42.2 (0.1 μM) %

**Q.** What about the “% Cleaved Caspase-3” value [8] of the same compound?
**A.** 44.0%

**Q.** What about the “% Cleaved Caspase-3” value [9] of the same compound?
**A.** 29.5%

**Q.** What about the “% Cleaved Caspase-3” value [10] of the same compound?
**A.** 16.7%

**Q.** And the “% Cleaved Caspase-3” value [11]?
**A.** 13.2%

**Q.** And the “% Cleaved Caspase-3” value [12]?
**A.** 26.5%

**Q.** What about the “% Cleaved Caspase-3” value [13] of the same compound?
**A.** 49.5%

**Q.** And the “% Cleaved Caspase-3” value [14]?
**A.** 63.2%

**Q.** How did the EC50 ([1]; Homo sapiens, EVSA-T, 72 h) turn out when `CCCCn1cc2c(cc1=O)C(C)(C)CN2C(=O)CN1C[C@@H](C)NC[C@@H]1CN1[C@H](C)COC[C@H]1C` [Example 35, 6-Butyl-1-{2-[(2R,5R)-2-{[(3R,5R)-3,5-dimethylmorpholin-4-yl]methyl}-5-methylpiperazin-1-yl]acetyl}-3,3-dimethyl-1H,2H,3H,5H,6H-pyrrolo[2,3-c]pyridin-5-one dihydrochloride] was run?
**A.** 16 nM

**Q.** What about the EC50 [2] of the same compound?
**A.** 13 nM

**Q.** And the EC50 ([3]; Homo sapiens, MDA-MB-231, 72 h)?
**A.** 130 nM

**Q.** What about the “hERG PPC (PI)” value ([4]; @ 1000 μM) of the same compound?
**A.** 53% @ 1000

**Q.** How did the EC50 ([1]; Homo sapiens, EVSA-T, 72 h) turn out when `CCCCc1cc2c([nH]c1=O)C(C)(C)CN2C(=O)CN1C[C@@H](C)NC[C@@H]1CN1C[C@H](C)OC[C@H]1C` [Example 37, 6-Butyl-1-{2-[(2R,5R)-2-{[(2S,5R)-2,5-dimethylmorpholin-4-yl]methyl}-5-methylpiperazin-1-yl]acetyl}-3,3-dimethyl-1H,2H,3H,4H,5H-pyrrolo[3,2-b]pyridin-5-one dihydrochloride] was run?
**A.** 3.2 nM

**Q.** And the EC50 [2]?
**A.** 7.4 nM

**Q.** What about the EC50 ([3]; Homo sapiens, MDA-MB-231, 72 h) of the same compound?
**A.** 18 nM

**Q.** What about the “hERG PPC (PI)” value ([4]; @ 500 μM) of the same compound?
**A.** 63% @ 500

**Q.** How did the “% Apoptosis Combination” value ([5]; agent 0.1 μM with Example 2 0.1 μM + 1 ng/ml TNF-α) turn out when `CC(=O)Nc1cccc(-n2c(=O)n(C3CC3)c(=O)c3c(Nc4ccc(I)cc4F)n(C)c(=O)c(C)c32)c1` [Trametinib] was run?
**A.** 52.3%

**Q.** And the “Fold Increase” value ([5]; combination (agent 0.1 μM) relative to Example 2 0.1 μM + TNF-α alone)?
**A.** 3.6

**Q.** Which “% Apoptosis Combination” value ([5]; agent 4 μM with Example 2 1 μM + 1 ng/ml TNF-α) does the source give for `CCCS(=O)(=O)Nc1ccc(F)c(C(=O)c2c[nH]c3ncc(-c4ccc(Cl)cc4)cc23)c1F` [Vemurafenib, reference compound] here?
**A.** 61.3%

**Q.** And the “Fold Increase” value ([5]; combination (agent 4 μM) relative to Example 2 1 μM + TNF-α alone)?
**A.** 2.0

**Q.** And the “% Apoptosis Combination” value ([7]; agent 1 μM with Example 2 1 μM + 1 ng/ml TNF-α, 24 h)?
**A.** 87.3%

**Q.** And the “Fold Increase” value ([7]; combination (agent 1 μM) relative to Example 2 1 μM + TNF-α alone)?
**A.** 1.7

— patent publication US12202828B2, “Bicyclic heterocycle compounds and their uses in therapy” (ASTEX THERAPEUTICS LIMITED, priority 2013, dated 2025)
